The values below are quoted from earlier work in patent US20110152294A1, “USE OF OSMOLYTES OBTAINED FROM EXTREMOPHILIC BACTERIA FOR THE PRODUCTION OF INHALABLE MEDICAMENTS FOR THE PROPHYLAXIS AND TREATMENT OF PULMONARY AND CARDIOVASCULAR DISEASES AND AN INHALATION DEVICE COMPRISING OSMOLYTE AS ACTIVE AGENT COMPONENT” (priority 2003, published 2011).

The series deals with cornea and iris of the eyes of rabbits. Conditions: external application on cornea and iris of rabbit eyes; effects disappeared afterwards.

Take `CC1=NC[C@H](O)[C@@H](C(=O)O)N1` [hydroxyectoine]: the “eye irritation after external application” value is “initial irritation and sensitization of the conjunctiva”.
